Test results from patent US20100173935A1, “Muscarinic Receptor Agonists that are Effective in the Treatment of Pain, Alzheimer's Disease and Schizophrenia” (AstraZeneca AB, priority 2006, published 2010).

Target: T1, hM1 (human Muscarinic receptor subtype 1) (Homo sapiens, UniProt P11229)
T1 construct: expressed in transfected cells; host or cells: CHO cells (ATCC)
T1 sequence (P11229 1-460): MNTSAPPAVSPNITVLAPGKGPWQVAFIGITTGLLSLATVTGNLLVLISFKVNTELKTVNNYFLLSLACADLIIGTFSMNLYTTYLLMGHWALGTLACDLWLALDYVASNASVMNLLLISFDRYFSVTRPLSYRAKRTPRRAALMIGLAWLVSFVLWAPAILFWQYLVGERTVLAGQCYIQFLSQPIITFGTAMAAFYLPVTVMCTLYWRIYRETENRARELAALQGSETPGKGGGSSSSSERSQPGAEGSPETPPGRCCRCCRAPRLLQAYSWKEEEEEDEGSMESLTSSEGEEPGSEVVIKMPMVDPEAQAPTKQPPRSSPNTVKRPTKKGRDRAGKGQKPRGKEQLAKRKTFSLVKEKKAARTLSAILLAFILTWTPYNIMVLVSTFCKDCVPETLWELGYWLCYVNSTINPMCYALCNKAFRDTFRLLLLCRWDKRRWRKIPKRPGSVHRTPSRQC
Assay: Human M1 calcium mobilization FLIPR assay
Type: cell-based
Conditions: CHO cells expressing hM1, Ca2+ release
Experimental: The compound activity in the present invention (EC50 or IC50) was measured using a 384 plate-based imaging assay that monitors drug induced intracellular Ca^2+ release in whole cells. Activation of hM1 (human Muscarinic receptor subtype 1, gene bank access NM_000738), rM1 (rat Muscarinic receptor subtype 1, gene bank access NM_080773), hM3 (human Muscarinic receptor subtype 3, gene bank access NM_000740NM_000740) and hM5 (human Muscarinic receptor subtype 5, gene bank access NM_0121258), receptors expressed in CHO cells (chinese hamster ovary cells, ATCC) was quantified in a Molecular Devices FLIPR II™ instrument as an increase in fluorescent signal. Inhibition of hM3 and hM5 by compounds was determined by the decrease in fluorescent signal in response to 20 nM carbachol activation.
CHO cells were plated in 384-black polylysine coated plate (Costar) at 8000 cells/well/50 μl for 24 hours or 4000 cells/well for 48 hours in a humidified incubator (5% CO2 and 37° C.) in DMEM/F12 medium without selection agent. Prior to the experiment the cell culture medium was removed from the plates by inversion. A loading solution of 30 μl of Hank's balanced salt solution, 10 mM Hepes and 2.5 mM Probenicid at Ph 7.4 (Cat no. 311-520-VL, Wisent) with 2 μM calcium indicator dye (FLUO-3AM, Molecular Probes F14202) was added to each well. Plates were incubated at 37° C. for 60 minutes prior to start the experiment. The incubation was terminated by washing the cells four times in assay buffer, leaving a residual 25 μl buffer per well. Cell plates were then transferred to the FLIPR, ready for compound additions.
The day of experiment, carbachol and compounds were diluted in three-fold concentration range (10 points serial dilution) for addition by FLIPR instrument. For all calcium assays, a baseline reading was taken for 30 seconds followed by the addition of 12.5 μl (25 μl for hM1 and rM1) of compounds, resulting in a total well volume of 37.5 μl (50 μl for hM1 and rM1). Data were collected every 1.6 seconds for 300 seconds. For hM3 and hM5 an additional 12.5 μl of carbachol (20 nM final) was added at 300 seconds. After this addition of carbachol (producing a final volume of 50 μl), the FLIPR continued to collect data every 2 seconds for 240 seconds. The fluorescence emission was read using filter 1 (emission 520-545 nm) by the FLIPR on board CCD camera.
Calcium mobilization output data were calculated as the maximal relative fluorescence unit (RFU) minus the minal value for both compound and agonist reading frame (except for hM1 and rM1 using only the maximal RFU). Data were analyzed using sigmoidal fits of a non-linear curve-fitting program (XLfit version 5.0.6 from ID Business Solutions Limited, Guildford, UK). All EC50 and IC50 values are reported as arithmetic means±standard error of mean of ‘n’ independent experiments.

Row | SMILES | EC50
1 | CCOC(=O)N1CC[C@H](N2CCC(n3c(=O)[nH]c4ccc(C)cc43)CC2)C1 (single isomer, unassigned) [Example 37] | 0.6 nM
2 | CCOC(=O)N1CCC(N2CCC(n3c(=O)[nH]c4ccc(C)cc43)CC2)C1 (single isomer, unassigned) [Example 38] | 7.9 nM
3 | CCOC(=O)N1CC[C@H](N2CCC(n3c(=O)[nH]c4ccc(OC)cc43)CC2)C1 (single isomer, unassigned) [Example 39] | 21.9 nM
4 | CCOC(=O)N1CCC(N2CCC(n3c(=O)n(C)c4ccccc43)CC2)C1 (centres unmarked) [Example 10, Ethyl 3-[4-(3-methyl-2-oxo-2,3-dihydro-1H-benzimidazol-1-yl)piperidin-1-yl]pyrrolidine-1-carboxylate] | 286 nM
5 | CCOC(=O)N1CCC(N2CCC(n3nnc4ccccc43)CC2)C1 (centres unmarked) [Example 11, ethyl 3-[4-(1H-1,2,3-benzotriazol-1-yl)piperidin-1-yl]pyrrolidine-1-carboxylate] | 612 nM
6 | CCOC(=O)N1CCC(N2CCC(=C3C(=O)Nc4ccccc43)CC2)C1 (centres unmarked) [Example 12, Ethyl 3-[4-(2-oxo-1,2-dihydro-3H-indol-3-ylidene)piperidin-1-yl]pyrrolidine-1-carboxylate] | 2690 nM
7 | Cn1cccc1C(=O)N1CC[C@H](N2CCC(n3c(=O)[nH]c4ccccc43)CC2)C1 [Example 21, 1-(1-{(3S)-1-[(1-methyl-1H-pyrrol-2-yl)carbonyl]pyrrolidin-3-yl}piperidin-4-yl)-1,3-dihydro-2H-benzimidazol-2-one] | 1180 nM
8 | CCOC(=O)N1CCC(N2C3CCC2CC(n2c(=O)[nH]c4ccccc42)C3)C1 (centres unmarked) [Example 30, Ethyl 3-[3-(2-oxo-2,3-dihydro-1H-benzimidazol-1-yl)-8-azabicyclo[3.2.1]oct-8-yl]pyrrolidine-1-carboxylate] | 518 nM
